Data taken from the supplement of paper PMC8149375.

Legend:
Conditions in all cases: treatment: drug alone; 5 days
769-P [1] = test: minimum viability across doses, drug alone, relative to DMSO (fraction); higher = less growth inhibition
Protocol: (§1)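 Primary HTS: 8 RCC cell lines treated with 8 doses (up to 10 uM) of each library drug alone for 5 days; viability read by CellTiter-Glo and normalised to DMSO. GI50 was fitted with XLfit (4-parameter), AUC is the area under the dose-response curve, and minimum viability is the lowest fraction of DMSO viability across doses.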

A498 [2] = test: as above
Protocol: as §1

ACHN [3] = test: as above
Protocol: as §1

UO-31 [4] = test: as above
Protocol: as §1

TK-10 [5] = test: as above
Protocol: as §1

786-O [6] = test: as above
Protocol: as §1

SN12C [7] = test: as above
Protocol: as §1

CAKI-1 [8] = test: as above
Protocol: as §1

769-P [9] = test: GI50, drug alone; higher = less potent
Protocol: as §1

A498 [10] = test: GI50, drug alone; higher = less potent
Protocol: as §1

ACHN [11] = test: GI50, drug alone; higher = less potent
Protocol: as §1

UO-31 [12] = test: GI50, drug alone; higher = less potent
Protocol: as §1

TK-10 [13] = test: GI50, drug alone; higher = less potent
Protocol: as §1

786-O [14] = test: GI50, drug alone; higher = less potent
Protocol: as §1

SN12C [15] = test: GI50, drug alone; higher = less potent
Protocol: as §1

CAKI-1 [16] = test: GI50, drug alone; higher = less potent
Protocol: as §1

769-P [17] = test: AUC of dose-response viability curve, drug alone (arbitrary (AUC of normalised viability)); higher = less growth inhibition
Protocol: as §1

A498 [18] = test: as above
Protocol: as §1

ACHN [19] = test: as above
Protocol: as §1

UO-31 [20] = test: as above
Protocol: as §1

TK-10 [21] = test: as above
Protocol: as §1

786-O [22] = test: as above
Protocol: as §1

SN12C [23] = test: as above
Protocol: as §1

CAKI-1 [24] = test: as above
Protocol: as §1

Row | Compound | GI50, drug alone (ACHN [11]) [nM] | GI50, drug alone (786-O [14]) [nM] | minimum viability across doses (769-P [1]) | minimum viability across doses (A498 [2]) | minimum viability across doses (ACHN [3]) | minimum viability across doses (UO-31 [4]) | minimum viability across doses (TK-10 [5]) | minimum viability across doses (786-O [6]) | minimum viability across doses (SN12C [7]) | minimum viability across doses (CAKI-1 [8]) | GI50, drug alone (769-P [9]) [nM] | GI50, drug alone (A498 [10]) [nM] | GI50, drug alone (UO-31 [12]) [nM] | GI50, drug alone (TK-10 [13]) [nM] | GI50, drug alone (SN12C [15]) [nM] | GI50, drug alone (CAKI-1 [16]) [nM] | AUC of dose-response viability curve (769-P [17]) | AUC of dose-response viability curve (A498 [18]) | AUC of dose-response viability curve (ACHN [19]) | AUC of dose-response viability curve (UO-31 [20]) | AUC of dose-response viability curve (TK-10 [21]) | AUC of dose-response viability curve (786-O [22]) | AUC of dose-response viability curve (SN12C [23]) | AUC of dose-response viability curve (CAKI-1 [24])
1 | Cn1cnc2c(F)c(Nc3ccc(Br)cc3Cl)c(C(=O)NOCCO)cc21 [AZD6244 (Selumetinib)] | 3000 | 1140 | 0.381 | 0.59 | 0.371 | 0.728 | 0.419 | 0.371 | 0.664 | 0.23 | 3950 | > 10000 | > 10000 | 3050 | > 10000 | 1660 | 2.75 | 3.06 | 2.59 | 4 | 2.45 | 2.41 | 2.88 | 2.51
2 | CN(C)C/C=C/C(=O)Nc1cc2c(Nc3ccc(F)c(Cl)c3)ncnc2cc1O[C@H]1CCOC1 [Afatinib (BIBW2992)] | 162 | 1460 | 0.0284 | 0.00814 | 0.000546 | 0.00799 | 0.0844 | 0.00665 | 0.0794 | 0.047 | 298 | 2860 | 2610 | 157 | 1340 | 673 | 1.94 | 2.87 | 1.71 | 3.72 | 1.73 | 2.26 | 2.37 | 2.18
3 | S=C(NCc1ccc2c(c1)OCO2)N1CCN(c2ncnc3c2oc2ccccc23)CC1 [Amuvatinib (MP-470)] | 2630 | 686 | 0.527 | 0.103 | 0.113 | 0.0651 | 0.28 | 0.104 | 0.0586 | 0.832 | > 10000 | 3140 | 2680 | 4830 | 1560 | > 10000 | 3.25 | 3.63 | 2.87 | 3.73 | 2.82 | 2.22 | 2.63 | 3.74
4 | S=C(NCc1ccc2c(c1)OCO2)N1CCN(c2ncnc3c2oc2ccccc23)CC1 [Amuvatinib (MP-470)_R2] | 2420 | 8.25 | 0.578 | 0.131 | 0.151 | 0.0813 | 0.198 | 0.0372 | 0.0284 | 0.749 | > 10000 | 4190 | 2570 | 2270 | 1560 | > 10000 | 3.38 | 3.12 | 2.69 | 3.43 | 2.19 | 1.54 | 2.51 | 3.34
5 | CS(=O)(=O)O.N#CC1(c2ccc(NC(=O)c3cccnc3NCc3ccncc3)cc2)CCCC1 [Apatinib (YN968D1)] | > 10000 | > 10000 | 0.901 | 1.02 | 0.676 | 0.126 | 0.739 | 0.648 | 0.799 | 0.666 | > 10000 | > 10000 | 8330 | > 10000 | > 10000 | > 10000 | 3.53 | 4.78 | 3.21 | 5.2 | 2.84 | 3.23 | 3.39 | 2.93

Further lines, with some results ahead:

Row | GI50, drug alone (ACHN [11]) [nM] | GI50, drug alone (786-O [14]) [nM] | Compound | minimum viability across doses (769-P [1]) | minimum viability across doses (A498 [2]) | minimum viability across doses (ACHN [3]) | minimum viability across doses (UO-31 [4]) | minimum viability across doses (TK-10 [5]) | minimum viability across doses (786-O [6]) | minimum viability across doses (SN12C [7]) | minimum viability across doses (CAKI-1 [8]) | GI50, drug alone (769-P [9]) [nM] | GI50, drug alone (A498 [10]) [nM] | GI50, drug alone (UO-31 [12]) [nM] | GI50, drug alone (TK-10 [13]) [nM] | GI50, drug alone (SN12C [15]) [nM] | GI50, drug alone (CAKI-1 [16]) [nM] | AUC of dose-response viability curve (769-P [17]) | AUC of dose-response viability curve (A498 [18]) | AUC of dose-response viability curve (ACHN [19]) | AUC of dose-response viability curve (UO-31 [20]) | AUC of dose-response viability curve (TK-10 [21]) | AUC of dose-response viability curve (786-O [22]) | AUC of dose-response viability curve (SN12C [23]) | AUC of dose-response viability curve (CAKI-1 [24])
6 | 17.3 | 34 | NC(=O)Nc1cc(-c2cccc(F)c2)sc1C(=O)N[C@H]1CCCNC1 [AZD7762] | 0.0526 | 0.0492 | 0.0318 | 0.00565 | 0.0208 | 0.00636 | 0.00737 | 0.00629 | 175 | 308 | 81.8 | 68.5 | 408 | 156 | 1.82 | 2.53 | 0.873 | 2.1 | 1.39 | 1.1 | 2.07 | 1.78
7 | 41.5 | 9.59 | COc1ccc(-c2ccc3c(N4CCOC[C@@H]4C)nc(N4CCOC[C@@H]4C)nc3n2)cc1CO [AZD8055] | 0.109 | 0.229 | 0.0903 | 0.00497 | 0.0959 | 0.00631 | 0.163 | 0.0607 | 171 | 370 | 69.1 | 85.1 | 110 | 119 | 1.76 | 2.4 | 1.25 | 1.29 | 1.48 | 0.809 | 1.62 | 1.48
8 | 140 | 57.3 | Cc1cc(C(=O)NOCCO)c(Nc2ccc(I)cc2F)n(C)c1=O [AZD8330] | 0.281 | 0.789 | 0.299 | 0.527 | 0.317 | 0.31 | 0.386 | 0.209 | 385 | > 10000 | > 10000 | 123 | 865 | 134 | 2.04 | 3.63 | 1.69 | 3.95 | 1.74 | 1.78 | 2.36 | 1.73
9 | 609 | > 10000 | CNC(=O)CN1CCC(Oc2cc3c(Nc4cccc(Cl)c4F)ncnc3cc2OC)CC1 [AZD8931] | 0.336 | 0.994 | 0.323 | 0.785 | 0.333 | 0.474 | 0.696 | 0.576 | 1150 | > 10000 | > 10000 | 1210 | > 10000 | > 10000 | 2.32 | 4.39 | 2.08 | 3.56 | 2.35 | 2.67 | 3.06 | 2.86
